# Experimental data reported in PubChem BioAssay AID1259411 (Chemical Carcinogenesis Research Information System (CCRIS), 2018).
# The source made the active and inactive calls. The rule behind the calls is not given here.
# Tested on: rodent carcinogenicity bioassays, tumor incidence
# Experiment: CCRIS carcinogenicity studies
# In short: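 Archive of carcinogenicity, mutagenicity, tumor promotion and tumor inhibition results drawn from journals, NCI reports and other sources, expert-reviewed; covers 1985-2011 and is no longer updated.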
structure (smiles),measurement,setting,value
Cc1cnc2ccc3c(nc(N)n3C)c2n1,carcinogen call,"Species: MONKEY, Strain/Sex: CYNOMOLGUS/FEMALE, Route: GAVAGE, Dose: 0, 10, 20 MG/KG BW FOR 84 MONTHS (STUDY DURATION: 92 MONTHS), Dose: 0, 10, 20 MG/KG BW FOR 84 MONTHS (STUDY DURATION: 92 MONTHS)",inactive; negative
same,carcinogen call,"Species: MONKEY, Strain/Sex: CYNOMOLGUS/MALE, Route: GAVAGE, Dose: 0, 10, 20 MG/KG BW FOR 84 MONTHS (STUDY DURATION: 92 MONTHS), Dose: 0, 10, 20 MG/KG BW FOR 84 MONTHS (STUDY DURATION: 92 MONTHS)",inactive; negative
same,carcinogen call,"Species: MOUSE, Strain/Sex: B6C3F1/MALE, Route: INTRAPERITONEAL, Dose: 0, 0.625 UMOL IN 35 µL DMSO ON D 1, 8, AND 15 AFTER BIRTH (STUDY DURATION: 8 MO)",inactive; negative
same,carcinogen call,"Species: MOUSE, Strain/Sex: B6C3F1/MALE, Route: INTRAPERITONEAL, Dose: 0, 0.625 UMOL IN 35 µL DMSO ON D 1, 8, AND 15 AFTER BIRTH (STUDY DURATION: 12 MO), Tumor Site: Type of Lesion: LIVER: HEPATOCELLULAR ADENOMA",active; positive
same,carcinogen call,"Species: MOUSE, Strain/Sex: B6C3F1/MALE, Route: INTRAPERITONEAL, Dose: 0, 1.25 UMOL IN 35 µL DMSO ON D 1, 8, AND 15 AFTER BIRTH (STUDY DURATION: 8 MO)",inactive; negative
same,carcinogen call,"Species: MOUSE, Strain/Sex: B6C3F1/MALE, Route: INTRAPERITONEAL, Dose: 0, 1.25 UMOL IN 35 µL DMSO ON D 1, 8, AND 15 AFTER BIRTH (STUDY DURATION: 12 MO), Tumor Site: Type of Lesion: LIVER: HEPATOCELLULAR ADENOMA, HEPATOCELLULAR CARCINOMA",active; positive
same,carcinogen call,"Species: MOUSE, Strain/Sex: C57BL/6J/MALE (20/GROUP), Route: DIET, Dose: 0, 30, 300 PPM FOR 78 WK (STUDY DURATION: 78 WK), Dose: 0, 30, 300 PPM FOR 78 WK (STUDY DURATION: 78 WK)",inactive; negative
same,carcinogen call,"Species: MOUSE, Strain/Sex: CDF1/FEMALE, Route: ORAL, Dose: 0, 0.06% IN DIET FOR 84 WK (STUDY DURATION: 84 WK), Tumor Site: Type of Lesion: LIVER: TUMOR, LUNG: ADENOMA OR ADENOCARCINOMA",active; positive
same,carcinogen call,"Species: MOUSE, Strain/Sex: CDF1/MALE, Route: ORAL, Dose: 0, 0.06% IN DIET FOR 84 WK (STUDY DURATION: 84 WK), Tumor Site: Type of Lesion: LIVER: TUMOR, LYMPHATIC SYSTEM: LYMPHOMA OR LEUKEMIA",active; positive
same,carcinogen call,"Species: RAT, Strain/Sex: F344/FEMALE, Route: ORAL, Dose: 0, 0.04% IN DIET FOR DURATION OF STUDY (STUDY DURATION: 429 D), Tumor Site: Type of Lesion: LIVER: TUMOR, ZYMBAL GLAND: TUMOR, CLITORAL GLAND: TUMOR, Tumor Site: Type of Lesion: LIVER: TUMOR, ZYMBAL GLAND: TUMOR, CLITORAL GLAND: TUMOR",active; positive
same,carcinogen call,"Species: RAT, Strain/Sex: F344/MALE, Route: ORAL, Dose: 0, 0.04% IN DIET FOR DURATION OF STUDY (STUDY DURATION: 429 D), Tumor Site: Type of Lesion: LIVER: TUMOR, ZYMBAL GLAND: TUMOR, SKIN: TUMOR, Tumor Site: Type of Lesion: LIVER: TUMOR, ZYMBAL GLAND: TUMOR, SKIN: TUMOR",active; positive
same,carcinogen call,"Species: RAT, Strain/Sex: F344/MALE, Route: ORAL, Dose: 0, 100, 200, 400 PPM IN DIET FOR 56 WK (STUDY DURATION: 56 WK), Dose: 0, 100, 200, 400 PPM IN DIET FOR 56 WK (STUDY DURATION: 56 WK), Tumor Site: Type of Lesion: LIVER: HEPATOCELLULAR ADENOMA, HEPATOCELLULAR CARCINOMA, ZYMBAL GLAND: SQUAMOUS CELL CARCINOMA, SKIN: TUMOR, Tumor Site: Type of Lesion: LIVER: HEPATOCELLULAR ADENOMA, HEPATOCELLULAR CARCINOMA, ZYMBAL GLAND: SQUAMOUS CELL CARCINOMA, SKIN: TUMOR",active; positive
same,carcinogen call,"Species: RAT, Strain/Sex: LEA/MALE, Route: ORAL, Dose: 0, 40 PPM IN DIET FOR 40 WK (STUDY DURATION: 40 WK)",inactive; negative
same,carcinogen call,"Species: RAT, Strain/Sex: LEC/MALE, Route: ORAL, Dose: 0, 40 PPM IN DIET FOR 40 WK (STUDY DURATION: 40 WK), Tumor Site: Type of Lesion: LIVER: TUMOR",active; positive
same,carcinogen call,"Species: RAT, Strain/Sex: SPRAGUE-DAWLEY/FEMALE, Route: GAVAGE, Dose: 75 MG/KG/D FOR 10 D, THEN PLACED ON A HIGH-FAT DIET (STUDY DURATION: 46 WK), Tumor Site: Type of Lesion: MAMMARY GLAND: CARCINOMA, ADENOMA",active; positive
COc1c(Cl)c(Cl)c([N+](=O)[O-])c(Cl)c1Cl,carcinogen call,"Species: MOUSE, Strain/Sex: B6C3F1/FEMALE, Route: ORAL, Dose: 0, 0.006, 0.012% OF DIET, Dose: 0, 0.006, 0.012% OF DIET",inactive; negative
same,carcinogen call,"Species: MOUSE, Strain/Sex: B6C3F1/MALE, Route: ORAL, Dose: 0, 0.006, 0.012% OF DIET, Dose: 0, 0.006, 0.012% OF DIET",inactive; negative
same,carcinogen call,"Species: RAT, Strain/Sex: F344/FEMALE, Route: ORAL, Dose: 0, 0.006, 0.012% OF DIET, Dose: 0, 0.006, 0.012% OF DIET",inactive; negative
same,carcinogen call,"Species: RAT, Strain/Sex: F344/MALE, Route: ORAL, Dose: 0, 0.006, 0.012% OF DIET, Dose: 0, 0.006, 0.012% OF DIET",inactive; negative
ClCC(Br)CBr (configuration not stated),carcinogen call,"Species: MOUSE, Strain/Sex: B6C3F1/FEMALE, Route: GAVAGE, Dose: 0, 110, 209 MG/KG, TWA, Dose: 0, 110, 209 MG/KG, TWA, Tumor Site: Type of Lesion: STOMACH: SQUAMOUS CELL CARCINOMA",active; positive
same,carcinogen call,"Species: MOUSE, Strain/Sex: B6C3F1/FEMALE, Route: INHALATION, Dose: 0, 0.6, 3.0 PPM 6 HR/D, 5 D/WK FOR 76-103 WK, Dose: 0, 0.6, 3.0 PPM 6 HR/D, 5 D/WK FOR 76-103 WK, Tumor Site: Type of Lesion: NASAL CAVITY: CARCINOMA (NOS), SQUAMOUS CELL CARCINOMA, SQUAMOUS CELL CARCINOMA OR SQUAMOUS CELL PAPILLOMA, ADENOCARCINO",active; positive
same,carcinogen call,"Species: MOUSE, Strain/Sex: B6C3F1/MALE, Route: GAVAGE, Dose: 0, 114, 219 MG/KG, TWA, Dose: 0, 114, 219 MG/KG, TWA, Tumor Site: Type of Lesion: STOMACH: SQUAMOUS CELL CARCINOMA",active; positive
same,carcinogen call,"Species: MOUSE, Strain/Sex: B6C3F1/MALE, Route: INHALATION, Dose: 0, 0.6, 3.0 PPM 6 HR/D, 5 D/WK FOR 76 WK, Dose: 0, 0.6, 3.0 PPM 6 HR/D, 5 D/WK FOR 76 WK, Tumor Site: Type of Lesion: NASAL CAVITY: CARCINOMA (NOS), SQUAMOUS CELL CARCINOMA, ADENOMATOUS POLYP (NOS), LUNG: ALVEOLAR/BRONCHIOLAR ADENOMA, ALV",active; positive
same,carcinogen call,"Species: RAT, Strain/Sex: F344/FEMALE, Route: INHALATION, Dose: 0, 0.6, 3.0 PPM 6 HR/D, 5 D/WK FOR 84-103 WK, Dose: 0, 0.6, 3.0 PPM 6 HR/D, 5 D/WK FOR 84-103 WK, Tumor Site: Type of Lesion: NASAL CAVITY: ADENOMATOUS POLYP (NOS), ADENOMA (NOS), SQUAMOUS CELL PAPILLOMA, CARCINOMA (NOS), ADENOCARCINOMA (NOS), NA",active; positive
same,carcinogen call,"Species: RAT, Strain/Sex: F344/MALE, Route: INHALATION, Dose: 0, 0.6, 3.0 PPM 6 HR/D, 5 D/WK FOR 84-103 WK, Dose: 0, 0.6, 3.0 PPM 6 HR/D, 5 D/WK FOR 84-103 WK, Tumor Site: Type of Lesion: NASAL CAVITY: ADENOMATOUS POLYP (NOS), ADENOMA (NOS), SQUAMOUS CELL PAPILLOMA, SQUAMOUS CELL CARCINOMA, CARCINOMA (NOS)",active; positive
same,carcinogen call,"Species: RAT, Strain/Sex: OSBORNE-MENDEL/FEMALE, Route: GAVAGE, Dose: 0, 15, 29 MG/KG, TWA, Dose: 0, 15, 29 MG/KG, TWA, Tumor Site: Type of Lesion: STOMACH: SQUAMOUS CELL CARCINOMA, SQUAMOUS CELL PAPILLOMA, MAMMARY GLAND: ADENOCARCINOMA",active; positive
same,carcinogen call,"Species: RAT, Strain/Sex: OSBORNE-MENDEL/MALE, Route: GAVAGE, Dose: 0, 15, 29 MG/KG, TWA, Dose: 0, 15, 29 MG/KG, TWA, Tumor Site: Type of Lesion: STOMACH: SQUAMOUS CELL CARCINOMA, MULTIPLE SITES: HEMANGIOSARCOMA OR HEMANGIOMA",active; positive
